Measured values taken from PubChem BioAssay (NCI).
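Tested at 5 concentrations; 48 h exposure; 96-well plates; endpoints linearly interpolated, else capped at highest concentration. TGI denotes the concentration required for complete inhibition of growth.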

Legend:
Assay in all cases: NCI tumour cell line growth inhibition, 48 h
EKVX NSCLC = tested on: EKVX NSCLC
NCI-H23 lung = tested on: NCI-H23 lung
T-47D breast = tested on: T-47D breast
NCI-H522 lung = tested on: NCI-H522 lung
UO-31 renal = tested on: UO-31 renal
NCI/ADR-RES ovarian = tested on: NCI/ADR-RES ovarian
MDA-MB-435 = tested on: MDA-MB-435
SW-620 colon = tested on: SW-620 colon
PC-3 prostate = tested on: PC-3 prostate
MOLT-4 leukemia = tested on: MOLT-4 leukemia
HCT-116 colon = tested on: HCT-116 colon
UACC-62 melanoma = tested on: UACC-62 melanoma
K-562 leukemia = tested on: K-562 leukemia
CCRF-CEM leukemia = tested on: CCRF-CEM leukemia

Row | Compound | TGI (EKVX NSCLC) [µM] | TGI (NCI-H23 lung) [µM] | TGI (T-47D breast) [µM] | TGI (NCI-H522 lung) [µM] | TGI (UO-31 renal) [µM] | TGI (NCI/ADR-RES ovarian) [µM] | TGI (MDA-MB-435) [µM] | TGI (SW-620 colon) [µM] | TGI (PC-3 prostate) [µM] | TGI (MOLT-4 leukemia) [µM] | TGI (HCT-116 colon) [µM] | TGI (UACC-62 melanoma) [µM] | TGI (K-562 leukemia) [µM] | TGI (CCRF-CEM leukemia) [µM]
1 | O=C1C=C(NCCc2cc(Cl)c(O)c(Cl)c2)C(=O)c2[nH]cnc21 | > 100 | 36.8 | 53.2 | 31.4 | > 100 | > 100 | 30.3 | > 100 | > 100 | 67.5 | > 100 | 41.1 | 55.4 | 
2 | Cc1cc(S(=O)(=O)Nc2nc(N)nc(N(C)C)n2)c(SC(C(=O)O)c2ccccc2)cc1Cl (stereo not drawn) | > 10 | > 10 | > 10 | > 10 | > 10 | > 10 |  | > 10 | > 10 | > 10 | > 10 |  | > 10 | > 10
3 | COC(=O)c1cn(CCCCO)nn1 | > 100 | > 100 | > 100 |  | > 100 | > 100 | > 100 | > 100 | > 100 | > 100 | > 100 | > 100 |  | > 100
4 | NC(N)=NCCCC(NCc1c2ccccc2[n+]([O-])c2ccccc12)C(=O)O (stereo not drawn) | > 100 | > 100 |  | > 100 | 89.8 |  |  | > 100 |  | > 100 | > 100 | > 100 | > 100 | 83.3
5 | COc1cc(O)c2c(c1O)C(=O)c1cc(C)ncc1C2=O | > 50 | 27.2 |  | > 50 | 42.5 |  |  | > 50 |  | > 50 | > 50 | > 50 | > 50 | > 50
6 | COc1cc(/C=C2/C(=O)N=C(NC(C)=O)N2C)ccc1OC(C)=O | > 100 | > 100 | > 100 |  | > 100 | > 100 | > 100 | > 100 | > 100 | > 100 | > 100 | > 100 |  | 
7 | COc1cc2c(cc1OC)CN1CCc3ccccc3CC1C2 (stereo not drawn) | > 100 | > 100 | 75.6 |  | > 100 | > 100 | > 100 | > 100 | > 100 | > 100 | > 100 | > 100 | > 100 | > 100
8 | O=C1CCCCCCCCCCC1CN(Cc1ccccc1)Cc1ccccc1 (stereo not drawn) | > 100 | > 100 | 63.9 | > 100 | > 100 |  | > 100 | > 100 | > 100 | 62.5 | 55.9 | 36.1 | > 100 | 50.2
9 | ClCCCC1COc2ccccc2O1 (stereo not drawn) | > 100 |  |  | > 100 | > 100 | > 100 |  | > 100 | > 100 | > 100 | > 100 | > 100 | > 100 | > 100
10 | CC(C(=O)N1C(=O)N(C(=O)[C@H](C)C(O)c2ccccc2)[C@H](c2ccccc2)[C@H]1c1ccccc1)[C@@H](O)c1ccccc1 (stereo partly drawn) | 93.4 | > 100 | > 100 | > 100 | > 100 |  | 54.3 | > 100 | 83.6 |  | > 100 | 51.1 | > 100 | 
11 | Cc1ccc(N=Nc2c(C)nn(C(=O)CC(=O)Nc3ccc(Cl)cc3)c2C)cc1C | > 100 | > 100 | > 100 | > 100 | > 100 | > 100 | > 100 | > 100 | > 100 | 66 | > 100 | > 100 |  | 71
12 | Nc1ccc(-c2nc3ccc(Cc4ccc5nc(-c6ccc(N)cc6)oc5c4)cc3o2)cc1 |  | > 100 |  | > 100 | > 100 | > 100 | > 100 | > 100 | > 100 | > 100 | > 100 | > 100 | > 100 | > 100
13 | O=C(/C=C/c1cccs1)c1ccc(Cl)s1 | > 100 | 51.2 | > 100 |  | 38.6 | > 100 | 37.3 | 51.7 | > 100 | 52.3 | 32.2 | > 100 | > 100 | 59.5
14 | Nc1ccc(-c2nc3ccccc3s2)cc1F | 11.8 | > 100 |  | > 100 | > 100 | > 100 | > 100 | > 100 | > 100 | 31.9 | 32.9 | 53.4 | > 100 | > 100
15 | Clc1ccc2c(Cl)nc(-c3ccccc3)nc2c1 | 91.1 | 35.9 |  |  | > 100 |  |  | > 100 |  | 84.5 | > 100 | > 100 | > 100 | > 100
16 | Cc1cccc2c(N)c3cccc(C(=O)NCCN4CCOCC4)c3nc12 | 5.66 | 2.17 |  | 1.86 | 8.26 | 42.8 | 2.12 | 26.1 | 7.19 | 1.71 | 24.9 | 3.18 |  | 
17 | Cc1cn(CCCCOC(=O)NC(CCCNC(N)=O)C(=O)O)c(=O)[nH]c1=O (stereo not drawn) | > 100 | > 100 | > 100 |  | > 100 | > 100 | > 100 | > 100 | > 100 | > 100 | > 100 | > 100 | > 100 | > 100
18 | CC(C)N(C(=O)c1ccc(NCc2cc(O)ccc2O)cc1)C(C)C | 28.6 | 42.2 | 40.7 |  | 21.3 | 42.9 | 40.9 | 82 | 52.3 | > 100 | 29.6 | 28.9 | > 100 | > 100
19 | Oc1c2c(c3c4c1N=CC=4CCN=3)C1(C=C(Br)C(O)C(Br)=C1)CCN2 (stereo not drawn) | 4.94 | 2.64 |  | 0.818 | 28 | 2.77 |  | 4.19 |  |  | 1.9 | 2.66 | > 21 | 5.79
